# Assay results reported in patent US9079821B2, “Quinone based nitric oxide donating compounds” (NICOX S.A., priority 2011, dated 2015).
# Where two headings read alike, the source gives them in different places.
# How the values were obtained:
# [1] = test system: rat L-NAME-induced hypertension; assay: In vivo tolerance evaluation (L-NAME-induced hypertension after 5-day oral treatment); settings: for Delta vs basal (mmHg): peak effect 3 hours
# Description: Fasted male SD rats (250-300 g, n=3-5 per group), obtained from Harlan Italy (Correzzana, Milan, Italy) were orally treated with tested compounds or vehicle (DMSO:Methocel 1% 2/98 v/v) in a total volume of 4 ml/kg by gavage. At each time point (1, 3, 6 and 24 h) animals were deeply anesthetized with Zoletil® 100 (3 mg/kg), given intramuscularly. Thereafter, a pressure catheter (Samba Sensors, Harvard Apparatus, UK) was introduced into the common carotid artery for central blood pressure measurement. Pressure transducer was connected to a personal computer, in order to allow real time monitor of the pressure tracing. After 10 minutes of basal recording, L-NAME (50 mg/kg) was administered intraperitoneally and the effect on SBP monitored. When the SBP stabilized (5 minutes without variations) the recording was stopped. To further confirm that functional activity was NO-dependent, at each time point blood ^15N-nitrite levels were measured following the procedure described in Example 12.
# To investigate whether the compound (6) induced nitrate tolerance, as observed for most of the drugs belonging to the nitrate class, the L-NAME-induced hypertension rat model described in Example 7 was performed following a repeated oral treatment. Rats were orally treated for 5 days with vehicle, compound (6) (100 mg/kg) or 5-ISMN (30 mg/kg). […] The experiments were performed at the peak effect (1 hour for 5-ISMN and 3 hours for Compound (6)), results are reported in Table 3.
# [2] = test system: isolated aortas from rats; assay: Ex vivo tolerance evaluation (vascular response of isolated aortas from treated rats); assay type: in vivo, rat; settings: for EC50 at 100 mg/kg: Rattus norvegicus, vascular response to Compound (6), 3 h after last administration
# Description: (§1) Thoracic aortas from male New Zealand rabbits or male Sprague Dawley (SD) were used. The aortas were placed immediately in Krebs-HEPES buffer (pH 7.4; composition mM: NaCl 130.0, KCl 3.7, NaHCO3 14.9, KH2PO4 1.2, MgSO4.7H2O 1.2, Glucose 11.0, HEPES 10.0, CaCl2.2H2O 1.6). Connective tissue was removed and aortas were cut into ring segments (4-5 mm in length). Each ring was placed in a 5 mL tissue bath filled with Krebs-HEPES buffer (37° C.) aerated with 95% O2 and 5% CO2 and was attached to a force transducer (Grass FT03), connected to a BIOPAC MP150 System for measurement of the isometric tension. Preparations were allowed to equilibrate for 1 h at a resting tension of 2 g for rabbit aortas and 1 g for rat aortas with changes of the buffer every 15 min. Then the rings were stimulated by exposure to 90 mM KCl (3 times) with intervening washings.
# (§2) Rat aorta. After equilibration, rat aortas were precontracted with KCl (90 mM) and, when the contraction was stable, a cumulative concentration-response curve to acetylcholine (ACh, 0.01-100 μM) was added. After washout, the rings were precontracted again with KCl (90 mM). When a steady-state level of contraction was obtained, a cumulative concentration-response curve to the tested compounds (0.01-100 μM) was obtained.
# (§3) Data analysis. Results are given as mean±SEM. Vascular responses are expressed as percentage relaxation and plotted vs concentration. The sensitivity of isolated aorta to different vasodilators is expressed as the concentration that elicited 50% of the maximal responses (EC50). Responses are quantified in terms of EC50 and Emax (maximal vasodilating effect) values, obtained from the concentration-response curve by nonlinear curve fitting, using GraphPad software.
# Tolerance to nitrate was further investigated assessing the vascular effects of Compound (6) following repeated treatment compared with 5-ISMN. The vascular response to the compound itself was assessed on isolated aortas from rats orally treated for 5 days with Compound (6) (100 mg/kg). The vascular response was performed as described in Example 6.
# Vascular responses were performed 1 h (ISMN) or 3 h (Compound (6)) after the last administration, the concentrations of tested compound that elicited the 50% of the maximal responses (EC50) are shown in Table 4.
# [3] = test system: methoxamine-precontracted rabbit aortic rings; assay: In vitro NO-mediated vasorelaxation; assay type: cell-based
# Description: The ability of compound (6) disclosed in example 1, to induce in vitro vasorelaxation, which is a functional marker of NO release, was assessed on methoxamine-precontracted rabbit aortic rings.
# as §1
# Rabbit aorta. […]
# Data analysis. […] Vascular responses are expressed as percentage relaxation and plotted vs concentration. […] Responses are quantified in terms of EC50 and Emax (maximal vasodilating effect) values, obtained from the concentration-response curve by nonlinear curve fitting, using GraphPad software.
# [4] = test system: rat aorta, endothelial-dependent vasodilation (response to ACh); assay: Endothelial dysfunction evaluation (vascular response to acetylcholine after treatment); assay type: in vivo; settings: for Emax at 100 mg/kg: Rattus norvegicus, response to ACh, read-out: % relaxation (Emax)
# Description: as §1, §2, §3
# Endothelial-dependent vasodilation (vascular response to acetylcholine, ACh) was assessed following 5-day treatment with Compound (6) (100 mg/kg) or 5-ISMN (30 mg/kg). A relaxant response to ACh indicated the presence of a functional endothelium. The vascular response was performed as described in Example 6.
# [5] = compound (6) 100 mg/kg oral, 5 days
smiles,measurement,setting,value
"COC1=C(OC)C(=O)C(CCCCCCCCCCO[N+](=O)[O-])=C(C)C1=O [Compound (6), 10-(4,5-dimethoxy-2-methyl-3,6-dioxocyclohexa-1,4-dienyl)decyl nitrate]",Delta vs basal (mmHg),"[1]; acute treatment, Comp. (6) 100 mg/kg oral",14 ± 3.8 mmHg
same,"efficacy against L-NAME-induced hypertension after 5-day treatment (nitrate tolerance), in words",[1]; [5],counteracted L-NAME-induced hypertension after 5-day oral treatment
same,Delta vs basal (mmHg),"[1]; repeated (5 days) oral treatment, Comp. (6) 100 mg/kg",27.8 ± 4 mmHg
same,EC50 at 100 mg/kg,"[2]; acute, aortas of rats given Compound (6) 100 mg/kg",0.11 ± 0.02 µM
same,EC50 at 100 mg/kg,[2]; repeated (5 days oral) Compound (6) 100 mg/kg,0.18 ± 0.02 µM
same,"vascular response of aortas from treated animals vs vehicle arteries, in words",[2]; [5],showed the same sensitivity to Compound (6) as those arteries of animals treated only with vehicle
same,relaxation at the highest concentration tested,[3]; 100 μM,89±1%
same,EC50,"[3]; Oryctolagus cuniculus, methoxamine (3 μM) precontracted, functional endothelium, read-out: EC50 (concentration-dependent relaxation)",4.7 ± 0.2 µM
same,"effect on endothelial-dependent vasorelaxation, in words","[4]; Compound (6) 100 mg/kg, 5-day treatment",did not modify endothelial-dependent vasorelaxation
same,Emax at 100 mg/kg,"[4]; 120 h, repeated (5-day) Comp. (6) 100 mg/kg",84.3 ± 7.5%
same,Emax at 100 mg/kg,"[4]; acute, Comp. (6) 100 mg/kg",89.6 ± 4.5%
